ChEMBL document CHEMBL1159146, “Structure-activity studies of N-cyano-3-pyridinecarboxamidines and their amide and thioamide congeners” (1994)

Assays:
Type in all cases: functional
[1] = species on record: Cavia porcellus; experiment: Compound was tested for chronotropic activity in right atria of guinea pig
[2] = species on record: Cavia porcellus; experiment: Compound was tested for negative inotropic activity in left atria of guinea pig
[3] = species on record: Rattus norvegicus; experiment: Compound was tested for […] vasorelaxing activity in aorta of rat

Compound | pD2 [1] | pD2 [2] | pD2 [3]
S=C(NCCc1ccccc1)c1cccnc1 | 4.1 | 4.39 | 4.95
O=C(NCCc1ccccc1)c1cccnc1 | <3.5 | <3.5 | 4.09
N#CN/C(=N\CCc1ccccc1)c1cccnc1 | 3.85 | 4.6 | 6.4
N#CN/C(=N\CCO[N+](=O)[O-])c1cccnc1 | 4.42 | 4.84 | 6.95
S=C(NCCc1ccccc1Cl)c1cccnc1 | 4.54 | <4.5 | 5.64
N#CN/C(=N\CCc1ccccc1Cl)c1cccnc1 | 5.32 | 5.51 | 7.57
O=C(NCCc1ccccc1Cl)c1cccnc1 | <3.5 | 3.7 | 4.83
O=C(NCCO[N+](=O)[O-])c1cccnc1 [NICORANDIL] | <3.5 | <3.5 | 5.62
